The subject of assay [1] is BKV. As to the kind of experiment: Study HDP-CDV-201: hematuria and BKV bladder events. Format: in vivo, human. How it is done:
A multicenter, randomized, double-blind, placebo-controlled, dose-escalation study of safety, tolerability, and ability of HDP-CDV to prevent or control […], and EBV infection and associated disorders was conducted. During enrollment of patients in the study, urine samples of candidate patients were routinely screened for BKV. Plasma was collected from patients who tested positive for BKV viruria in urine, and AdV, EBV and BKV level in the plasma was evaluated.

In assay [2] the test system is BKV. Nature of the assay: Study HDP-CDV-201: serum creatinine as marker of renal function.
Assay [3] concerns AdV. As to the kind of experiment: In vitro antiviral activity in cell culture. The format is cell-based.
Assay [4] deals with BKV. As to the kind of experiment: In vitro antiviral activity in cell culture. Format: cell-based.
Assay [5] has as its system CMV. Nature of the assay: In vitro antiviral activity in cell culture. Format: cell-based. To be noted: Human betaherpesvirus 5.
The test system of assay [6] is EBV. As to the kind of experiment: In vitro antiviral activity in cell culture. The format is cell-based. Particulars: human gammaherpesvirus 4.
In assay [7] the test system is HSV-1. Nature of the assay: In vitro antiviral activity in cell culture. Format: cell-based. Particulars: HSV-1, cell culture; for EC50: Human alphaherpesvirus 1.
Assay [8] concerns VZV. Nature of the assay: In vitro antiviral activity in cell culture. Particulars: for EC50: Human alphaherpesvirus 3, read-out: EC50s.
Assay [9] has as its system HHV-6(B). Nature of the assay: In vitro antiviral activity in cell culture. Format: cell-based.
Where [10] appears, read: BK positive during treatment (1/93).
Setting [11] is: BK positive during treatment, N=93.

For `CCCCCCCCCCCCCCCCOCCCOP(=O)(O)CO[C@H](CO)Cn1ccc(N)nc1=O` [HDP-CDV], the “1 + HEME CONFIRMED; NEW ONSET” value in [1] (BK negative throughout (4/78)) is reported as 5.1%; in assay [1] (BK positive during treatment (4/93)), 4.3%. For the same compound, the “>120 LAST; 1 + HEME NEW ONSET; CONFIRMED; >25% INC CREATININE” value came to 1.3% in assay [2] (BK negative throughout) and 1.1% in assay [2] (setting [10]). In addition, the “CR >120 LAST VALUE; 1 + HEME CONFIRMED NEW ONSET” value was 1.3% in assay [2] (BK negative throughout (1/78)) and 1.1% in [2] (setting [10]). Further, the “>120; NEW; >25% INCREASE” value in assay [2] (BK negative throughout (6/78)) is 7.7%; in assay [2] (BK positive during treatment (7/93)), 7.5%. For the same compound, the “CREATININE >120 LAST VALUE AND NEW FROM BASELINE” value was 7.7% in [2] (BK negative throughout (6/78)) and 10.8% in [2] (BK positive during treatment (10/93)). The “creatinine elevations >120 microM and =>25% increase over baseline” value in assay [2] (BK negative throughout (7/78), placebo 7.4%) was determined as 9.0%. In addition, the “CR >120 LAST VALUE” in [2] (BK negative throughout (10/78)) was 12.8%; in [2] (BK positive during treatment (14/93)), 15.1%. Also, the “creatinine elevations (>120 last and >25% increase from baseline) OR 1+ heme, confirmed, new onset” value in assay [2] (BK negative throughout (11/78), placebo 11.1%) turned out to be 14.1%; in assay [2] (BK positive during treatment (11/93), placebo 37.5%), 11.8%. The “# (of CR >120 at baseline) THAT INCREASED >25%” value stood at 1 in assay [2] (BK negative throughout, N=78) and 0 in [2] (setting [11]). Also, the “# (of CR >120 at baseline) THAT INCREASED DURING TREATMENT” value in assay [2] (BK negative throughout, N=78) was 1; in assay [2] (setting [11]), 0. Also, the “end of treatment creatinine elevations >120 microM and =>25% over baseline” value in [2] (BK positive during treatment (7/93), placebo 18.75%) turned out to be 7.5%.
`Nc1nc2c(ncn2COCCO)c(=O)[nH]1` [Acyclovir]: the EC50 in assay [3] was greater than 100 µM; in assay [4], greater than 200 µM.
Consider `CC(C)Nc1nc2cc(Cl)c(Cl)cc2n1[C@H]1O[C@@H](CO)[C@H](O)[C@@H]1O` [Maribavir], for which the figures for the EC50 in assay [5] and in [6] were 310 nM and 630 nM, respectively. For the same compound, the EC50s result in assay [7] is “No Activity”; in assay [8] (VZV, cell culture) it was “No Activity”.
`Nc1nc(O)c2ncn(COC(CO)CO)c2n1` [Ganciclovir]: the EC50 in [5] was 3800 nM; in assay [9], 5.9 µM; in [3], 4.5 to 33 µM; in [6], 900 nM; in assay [7], 7 nM; in assay [4] it was greater than 200 µM. Moreover, the EC50 in assay [8] was determined as 1300 nM.
Take `Nc1ccn(C[C@@H](CO)OCP(=O)(O)O)c(=O)n1` [Cidofovir]: the EC50 in assay [5] was 400 nM; in assay [9], 5.4 µM; in assay [3], 1.3 µM; in assay [6] it was greater than 108000 nM; in assay [7] it was 5500 nM; in assay [4] it was 115 µM. Further, the EC50 in assay [8] came to 500 nM.

Values taken from patent publication US20150087619A1, “METHOD OF MITIGATING VIRUS ASSOCIATED END-ORGAN DAMAGE” (CHIMERIX, INC., priority 2012, published 2015).
